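Test compounds were applied to cells in 96-well plates for 48 hours at 5 doses. At the GI50, growth is halved. The concentration for full growth arrest is given as TGI.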 Some results are limits rather than exact numbers.

Test systems include M14 melanoma; TK-10 renal; SNB-19 CNS; SNB-75 CNS; RXF 393 renal; SK-MEL-28 melanoma; UACC-257 melanoma; UO-31 renal; HT29 colon; UACC-62 melanoma.
Assay in all cases: NCI-60 cell line screen, 48 h

Regarding `CN(C)c1ccc(N=Nc2c([O-])ccc3ccccc23)cc1.[C-]#[O+].[C-]#[O+].[Ir]`, the GI50 in the experiment with M14 melanoma is 21.9 µM; with TK-10 renal, 23.8 µM; with SNB-19 CNS it was more than 100 µM; in the experiment with SNB-75 CNS, 54.8 µM; in the experiment on RXF 393 renal, 18.3 µM; in the experiment on SK-MEL-28 melanoma, 26.3 µM. Further, the GI50 with UACC-257 melanoma is 5.71 µM; in the experiment with UO-31 renal it was 26.7 µM; in the experiment on HT29 colon, 28.5 µM; with UACC-62 melanoma it was 21.5 µM. Besides, the TGI with M14 melanoma was 46.6 µM; with TK-10 renal, 51.7 µM; with SNB-19 CNS, more than 100 µM; with SNB-75 CNS, more than 100 µM; in the experiment on RXF 393 renal, 32.9 µM; with SK-MEL-28 melanoma it was 65.4 µM. The TGI with UACC-257 melanoma was 36 µM; with UO-31 renal it was more than 53.2 µM; in the experiment with HT29 colon it was more than 73.1 µM; with UACC-62 melanoma, 55.6 µM.
In the case of `COC(=O)C(=O)C(C(=O)C=C(C)C)C(=O)C(=O)Nc1cccc(C(C)=O)c1` (stereo not given), the TGI in the experiment on M14 melanoma, with TK-10 renal, in the experiment on SNB-19 CNS, in the experiment with SNB-75 CNS, in the experiment with RXF 393 renal and in the experiment with SK-MEL-28 melanoma was more than 100 µM throughout. The TGI in the experiment on UACC-257 melanoma, in the experiment on UO-31 renal, in the experiment on HT29 colon and in the experiment on UACC-62 melanoma was more than 100 µM throughout.
For the compound `CCO[C@@H]1C2C=CC(C2)[C@H]1[N+](=O)[O-]` (stereo not given in full), the TGI in the experiment on M14 melanoma, with TK-10 renal, in the experiment on SNB-19 CNS, in the experiment on SNB-75 CNS, with RXF 393 renal and with SK-MEL-28 melanoma was more than 100 µM throughout. For the same compound, the TGI in the experiment on UACC-257 melanoma, in the experiment on UO-31 renal, in the experiment on HT29 colon and with UACC-62 melanoma was more than 100 µM throughout.
In the case of `COc1cc(/C=C(/c2ccccc2)[N+](=O)[O-])c(OC)c2c1OCO2`, the GI50 in the experiment with M14 melanoma was 1.56 µM; with TK-10 renal, 2.05 µM; with SNB-19 CNS, 1.58 µM; in the experiment with SNB-75 CNS, 0.539 µM; with RXF 393 renal it was 1.49 µM; in the experiment with SK-MEL-28 melanoma, 1.47 µM. Also, the GI50 in the experiment with UACC-257 melanoma is 1.58 µM; in the experiment on UO-31 renal, 1.28 µM; in the experiment with HT29 colon, 2.64 µM; in the experiment with UACC-62 melanoma, 1.44 µM. The TGI with M14 melanoma stood at 3.3 µM; with TK-10 renal, 3.81 µM; with SNB-19 CNS, 2.95 µM; in the experiment with SNB-75 CNS, 2.04 µM; in the experiment with RXF 393 renal, 2.85 µM; in the experiment with SK-MEL-28 melanoma it was 2.84 µM. Also, the TGI in the experiment on UACC-257 melanoma came out at 3.4 µM; with UO-31 renal, 2.54 µM; in the experiment on HT29 colon, 13.1 µM; in the experiment with UACC-62 melanoma it was 2.98 µM.
Take `CC(C)=CC(=O)CC(=O)C(=O)Nc1ccc(Cl)c(Cl)c1`: the TGI with M14 melanoma, with TK-10 renal, in the experiment with SNB-19 CNS, in the experiment with SNB-75 CNS, with RXF 393 renal and in the experiment with SK-MEL-28 melanoma was more than 100 µM in each case. In addition, the TGI with UACC-257 melanoma, with UO-31 renal, in the experiment on HT29 colon and with UACC-62 melanoma was more than 100 µM throughout.
On to `CCSc1nc(COC(=O)NC)c(COC(=O)NC)n1C`, for which the TGI with M14 melanoma was more than 83 µM; in the experiment with TK-10 renal, more than 100 µM; in the experiment with SNB-19 CNS, more than 100 µM; in the experiment on SNB-75 CNS, more than 100 µM; in the experiment with RXF 393 renal, 78.5 µM; in the experiment on SK-MEL-28 melanoma, more than 100 µM. In addition, the TGI was more than 100 µM with UACC-257 melanoma, more than 100 µM in the experiment with UO-31 renal, more than 100 µM in the experiment on HT29 colon and 51.2 µM in the experiment with UACC-62 melanoma.
In the case of `O=C(O)CCC1CCc2cccc3occ1c23` (stereo not given), the TGI in the experiment on M14 melanoma, in the experiment on TK-10 renal, in the experiment with SNB-19 CNS, with SNB-75 CNS, with RXF 393 renal and with SK-MEL-28 melanoma was more than 100 µM in each case. In addition, the TGI in the experiment with UACC-257 melanoma, in the experiment with UO-31 renal, with HT29 colon and with UACC-62 melanoma was more than 100 µM throughout.
As to `CC(=O)Oc1ccccc1C(=O)C1c2cccc(O)c2C(=O)c2c(O)cccc21`, the TGI turned out to be 5.16 µM in the experiment with M14 melanoma; 15.4 µM in the experiment with TK-10 renal; 24.3 µM in the experiment on SNB-19 CNS; 4.54 µM in the experiment with SNB-75 CNS; 1.46 µM in the experiment with RXF 393 renal; 7.14 µM with SK-MEL-28 melanoma. Further, the TGI in the experiment on UACC-257 melanoma came to 3.76 µM; in the experiment with UO-31 renal, 1.68 µM; in the experiment on HT29 colon, 6.59 µM; in the experiment with UACC-62 melanoma, 2.23 µM.
For the compound `CC[CH2][Pb]([CH2]CC)([CH2]CC)[NH]S(=O)(=O)c1ccc(C)cc1`, the GI50 with M14 melanoma was 0.0616 µM; in the experiment on TK-10 renal it was 0.0971 µM; with SNB-19 CNS, 0.0349 µM; with SNB-75 CNS, 0.0421 µM; with RXF 393 renal, 0.0218 µM; in the experiment on SK-MEL-28 melanoma it was 0.0764 µM. For the same compound, the GI50 is 0.0773 µM with UACC-257 melanoma, 0.143 µM in the experiment on UO-31 renal, 0.0546 µM in the experiment with HT29 colon and 0.0272 µM in the experiment on UACC-62 melanoma. The TGI in the experiment with M14 melanoma was determined as 0.219 µM; in the experiment on TK-10 renal, 0.36 µM; with SNB-19 CNS, 0.143 µM; in the experiment on SNB-75 CNS, 0.132 µM; in the experiment on RXF 393 renal it was 0.0869 µM; with SK-MEL-28 melanoma, 0.241 µM. Further, the TGI with UACC-257 melanoma amounted to 0.245 µM; in the experiment on UO-31 renal, 0.274 µM; in the experiment with HT29 colon, 0.112 µM; in the experiment on UACC-62 melanoma, 0.0995 µM.
Regarding `Cn1cc(-c2ccc(CNc3cc(-c4cnc5cc(OCCCN6CCCC6)ccn45)ncn3)cc2)cn1`, the GI50 with M14 melanoma was 1.74 µM; with TK-10 renal it was 23.7 µM; with SNB-19 CNS, 2.5 µM; with SNB-75 CNS, 1.79 µM; in the experiment on RXF 393 renal, 1.61 µM; in the experiment with SK-MEL-28 melanoma it was 1.65 µM. In addition, the GI50 with UACC-257 melanoma was 2.23 µM; with UO-31 renal, 1.41 µM; with HT29 colon it was 1.33 µM; in the experiment with UACC-62 melanoma it was 13.2 µM. For the same compound, the TGI in the experiment on M14 melanoma came out at 3.2 µM; with TK-10 renal it was 39.1 µM; in the experiment with SNB-19 CNS it was 8.43 µM; with SNB-75 CNS, 7.78 µM; with RXF 393 renal it was 3.33 µM; with SK-MEL-28 melanoma, 3.17 µM. Moreover, the TGI in the experiment on UACC-257 melanoma stood at 5.5 µM; in the experiment on UO-31 renal, 2.82 µM; with HT29 colon, 2.72 µM; in the experiment on UACC-62 melanoma, 29.2 µM.

The values above are taken from PubChem BioAssay (NCI).
